{"source": "patent US5260275A", "about": "“Hypoglycemics” (Amylin Pharmaceuticals, Inc., priority 1990, dated 1993)", "key": {"HIT T-15 cells [1]": {"test_system": "HIT T-15 cells", "assay": "Insulin release from HIT T-15 cells", "type": "cell-based, hamster", "description": "(§1) HIT T-15 cells (HIT cells; American Type Tissue Collection, Rockville, MD; R. F. Santerre, et al. (1981) Proc. Nat. Acad. Sci. USA 78, 4339-4343.) were subcultured weekly in Ham's F-12 medium (Irvine Scientific, Santa Ana, Calif.) containing 10% horse serum (Gemini Bioproducts, Calabasas, Calif.), 2.5% fetal bovine serum (FBS; Gemini), 2 mM L-glutamine, and 10.0 mM glucose. Cells were maintained at 37° C. and 5% CO2 / 95% humidified air and medium was replaced every 2 to 3 days. All experiments were performed with cells from passages 66 to 71.\n(§2) Amylin and insulin secretion were measured using reagents of analytical grade unless otherwise indicated. The secretion medium was a Krebs-Ringer buffer (KRB) containing 119 mM NaCl, 4.74 mM KCl, 2,54 mM CaCl2, 1.19 mM MgSO4, 1.19 mM KH2 PO4, 25 mM NaHCO3, 10 mM HEPES and 0.1% protease-free bovine serum albumin (Cohn fraction V; Sigma Chemical Co., St. Louis Mo.) at pH 7.4. Glibenclamide (Sigma) was initially dissolved in ethanol (50 mg/ml) then diluted to working concentrations in KRB. […] Tolbutamide (Sigma) was initially dissolved in dimethylsulfoxide (50 mg/ml). […] Metformin (Sigma) was diluted in KRB.\n(§3) Five days before each secretion study cells were subcultured at 0.26×10^6 cells/0.8 ml medium/well in 24-well tissue culture plates (Corning Glass Works, Corning N.Y.). Medium was replaced on day 3. On day 5 cells were washed twice with 1.0 ml KRB then incubated in 1.0 ml KRB (30 minutes, 37° C.) in equilibrium with air. Cells were washed twice more prior to addition of 0.5 ml KRB containing the indicated concentrations of glucose, metformin, tolbutamide and glibenclamide. After a 60 minute incubation with test substance or substances, supernatants were centrifuged (5 minutes, 500×g, 5° C.; GPKR centrifuge, Beckman Instruments, Inc., Palo Alto, Calif.) to remove cell debris, then stored in polypropylene micro test tubes (Brinkman Instrument Co., Westbury, N.Y.) at -20° C. until analyzed by radioimmunoassay. Supernatants were analyzed for insulin and amylin content within one week of collection. Three wells per plate were randomly selected for cell quantitation. Cells were incubated with 75 μg trypsin and 30 μg EDTA in 150 μl normal saline (8 minutes, 37° C.), then counted on a Coulter Counter (Model Zf, Coulter Electronics, Hialeah, Fla.).\n(§4) Immunoreactive insulin content in supernatants was measured using a commercial radioimmunoassay (IM.78; Amersham, Arlington Heights, Ill.). […] The radioimmunoassay for immunoreactive amylin was as follows. Assay diluent was phosphate-buffered saline (PBS; 137 mM NaCl, 2.68 mM KCl, 1.47 mM KH2 PO4, 6.65 mM Na2 HPO4) containing 0.1% Triton-X 100 (v/v), 0.01% NaN3 (w/v), and 0.1% gelatin (v/v; teleostean, 45% aqueous solution, Sigma) at pH 7.4. All incubations were performed at 4° C. ^125 I-[Tyr 37]-human synthetic amylin tracer was iodinated by the chloramine-T method and purified on a C18 Sep-Pak (Waters Associates, Milford, Mass.). Specific activity was approximately 500 μCi/μg.\nData in FIGS. 3 and 4 are shown as the mean±S.D. of 4 replicate samples. An unpaired Student's t-test was used to compare secretion in the absence and presence of hypoglycemic agent (Statview 512+ program; Brain Power, Inc., Calabasas, Calif.).\nas §1, with “Md.)” for “MD; R. F. Santerre, et al. (1981) Proc. Nat. Acad. Sci. USA 78, 4339-4343.)”, “L-glutamine, 10^5 IU penicillin G/1, 100 mg streptomycin/1” for “L-glutamine,”, “C02/” for “CO2 /”, “62” for “66”"}, "HIT T-15 cells [2]": {"test_system": "HIT T-15 cells", "assay": "Amylin release from HIT T-15 cells", "type": "cell-based, hamster", "conditions": "for Effect on basal and glucose-stimulated amylin secretion (in words): same concentrations that stimulate insulin secretion (tolbutamide 100 μM; glibenclamide 0.1 and 1.0 μM), 0 and 10 mM glucose", "description": "as §1, §2, §3, §4\nStandards and unknowns were run in triplicate or duplicate respectively. After an 18 hour incubation, 100 μl of tracer containing 20,000 dpm was added and samples were incubated an additional 18 hours. To ensure complete immunoprecipitation of amylin:antibody complexes, 100 μl of rabbit gamma globulin (0.35 mg/ml, Scantibodies Laboratory, Santee, Calif.) and 100 μl of goat anti-rabbit gamma globulin (0.50 mg/ml, purified grade; Scantibodies) were added. After a 15 minute incubation, 1.0 ml 2% polyethylene glycol (w/v. MW 8,000; Sigma) in assay buffer was added and samples were centrifuged (30 minutes, 1500×g, 5° C.). Samples were decanted and pellets were counted on a gamma counter (model 1277; LKB Wallac, Turku, Finland).\nData in FIGS. 3 and 4 are shown as the mean±S.D. of 4 replicate samples."}, "[3]": {"test_system": "amylin inhibition of insulin-stimulated muscle glycogen synthesis", "assay": "Antagonist assay in isolated rat soleus muscle (radiolabelled glucose into glycogen, Example 6)", "type": "cell-based", "conditions": "1000 μU/mL insulin", "description": "An antagonist assay was performed in vitro using the isolated soleus muscle from rats. It measured the rate of incorporation of radiolabelled glucose into muscle glycogen as follows: […] There were therefore 9 treatment groups (conditions 1,2,3 and six subgroups of condition 4). The right and left soleus muscles of 4-hour fasted rats were removed immediately after decapitation of the animals, divided in half and temporarily placed in physiological saline. Muscles were assigned to different treatment groups so that the 4 muscle pieces from each animal were evenly distributed among the 9 flasks representing the different assay conditions. […] Pharmacologically active agents were added to the 10mL of medium to result in the above stated concentrations and mixtures. […] Frozen muscle specimens were digested in 1 mL 60% potassium hydroxide at 70° C. for 45 minutes. […] The supernatant was aspirated and the glycogen washed with ethanol, aspirated and dried under vacuum. The remaining glycogen was redissolved in water and scintillation fluid and counted for ^14 C. From a knowledge of the specific activity of ^14 C-glucose in the 5.5 mM glucose of the incubation medium, and the total ^14 C counts remaining in the glycogen extracted from each muscle, the net rate of glycogen synthesis over the final 60 minute incubation period was determined. This was normalized per mass of muscle and expressed as μmoles of glucosyl units incorporated into glycogen per hour per gram of muscle. The antagonist dose/response curve was fitted to a 4-parameter logistic model using a least-squares iterative routine (ALLFIT, v2.7, NIH, MD) to derive the EC50 for disinhibition."}, "[4]": {"test_system": "isolated rat islets of Langerhans", "assay": "Glucose-stimulated insulin secretion from isolated rat islets of Langerhans", "type": "cell-based", "conditions": "glucose 10 mmol/L", "description": "The following experiments illustrate the fact that subpeptides of amylin can act to reduce the amount of insulin produced by isolated islets of Langerhans in response to a standard glucose challenge. Similar results have been obtained using whole amylin. All experiments were performed by known methods used in experimental practice. See, e.g., Lacey P. E., and Kostianovsky M., Method for the Isolation of Intact Islets of Lanaerhans from the Rat Pancreas. Diabetes 1967; 16:35-39.\nBriefly, rats were killed, and islets of Langerhans were isolated from their pancreases. Experiments were performed either with freshly isolated islets or after overnight incubation of islets (23 h) in standard culture medium and conditions at 37° C. Synthetic amylin peptide 27-37 or synthetic calcitonin gene related peptide (CGRP) was dissolved in a 1.0 mmol/L citric acid/sodium citrate buffer, pH 3.0, and the concentration of the amylin 27-37 was verified by quantitative amino acid analysis. See, e.g., Cooper G. J. S. et al., Proc Natl Acad Sci USA 1987; 84:8628-8632. […] Stimulation of islets was carried out at the standard stimulatory glucose concentration of 10 mmol/L.\nProduction of insulin is expressed as μU/islet/h. All experiments were performed with five replicates per point. The integrity of the islet response was assessed by comparing the responses after stimulation of different aliquots of islets by two and ten mmol/L glucose, respectively, and the strength of the inhibitory response was judged against that induced by 1 μg/ml (650 nmol/L) somatostatin. Somatostatin is a 14 amino acid peptide which is a known, potent inhibitor of the insulin secretory response of islet B-cells to glucose. Arimura A. Biomed res1981; 2:233-257. […] Petterson M., Ahren B., Bottcher G., Sundler F., Endocrinology 1986; 119:865-869.\nThe results are shown in TABLE 5 below and all results are expressed as standard error of the mean (s.e.m.). The significance of differences between the means of groups is assessed by the t-test. The result of stimulation by 10 mmol/L glucose is compared with the results of stimulation at 2 mmol/L glucose. In all other experimental conditions, the significance of the inhibitory effect is measured against the effect of 10 mmol/L glucose alone."}, "[5]": {"assay": "Intravenous amylin bolus in normal rats", "type": "in vivo, rat", "description": "We have also shown that amylin acutely produces diabetes (fasting hyperglycemia greater than 140 mg/dL) when administered intravenously. Eight normal rats were injected with a 100 μg bolus of amylin (rat amylin, Bachem, Torrance, Calif.). An intravenous amylin bolus produced a profound hyperglycemia to diabetic levels within 15-30 minutes (usually around 200 mg/dL). This hyperglycemia persists for several hours. […] There is an increase in respiratory quotient (RQ) after amylin only when somatostatin is absent and insulin is allowed to increase in response to hyperglycemia. During somatostatin infusion (no endogenous insulin release), there is no change in RQ, indicating no change from lipid to carbohydrate fuel usage in response to amylin in the fasted animal."}, "[6]": {"conditions": "100 μg intravenous bolus, normal rats"}}, "note": "No end group written: not given here.", "data": [{"compound": "COc1ccc(Cl)cc1C(=O)NCCc1ccc(S(=O)(=O)NC(=O)NC2CCCCC2)cc1", "note": "[glibenclamide]", "values": [{"measurement": "Proportional increase of basal insulin release", "setting": "HIT T-15 cells [1]; 0 glucose", "value": "more than two-fold"}, {"measurement": "Effect on basal and glucose-stimulated secretion of insulin (in words)", "setting": "HIT T-15 cells [1]; 0.1 and 1.0 μM, 0 and 10 mM glucose, 60 min", "value": "significantly enhanced"}, {"measurement": "Proportional increase in basal amylin secretion", "setting": "HIT T-15 cells [2]; basal conditions (0 glucose)", "value": "approximately two-fold"}, {"measurement": "Effect on basal and glucose-stimulated amylin secretion (in words)", "setting": "HIT T-15 cells [2]", "value": "significantly increase"}]}, {"compound": "CN(C)C(=N)N=C(N)N", "note": "[metformin]", "values": [{"measurement": "Effect on insulin secretion (in words)", "setting": "HIT T-15 cells [1]; 10 and 100 μM, 0 and 10 mM glucose, 60 min", "value": "no measurable effect"}, {"measurement": "Effect on rates of amylin secretion (in words)", "setting": "HIT T-15 cells [2]; islet β-cells (HIT), concentration range examined", "value": "does not influence"}]}, {"compound": "CCCCNC(=O)NS(=O)(=O)c1ccc(C)cc1", "note": "[tolbutamide]", "values": [{"measurement": "Effect on basal and glucose-stimulated secretion of insulin (in words)", "setting": "HIT T-15 cells [1]; 100 μM, 0 and 10 mM glucose, 60 min", "value": "significantly enhanced"}, {"measurement": "Effect on basal and glucose-stimulated amylin secretion (in words)", "setting": "HIT T-15 cells [2]", "value": "significantly increase"}]}, {"compound": "CGRP8-37: 8-37 human CGRP (Bachem), amylin antagonist", "values": [{"measurement": "Effect on amylin inhibition of insulin-stimulated muscle glycogen synthesis (in words)", "setting": "[3]; 20 nM amylin", "value": "partly reverses"}, {"measurement": "Increment in the rate of glycogen synthesis, maximum reached", "setting": "[3]; 20 nM amylin, antagonist 1 nM-10 μM", "value": "about 115 % of basal"}, {"measurement": "EC50", "setting": "[3]; 20 nM amylin, read-out: EC50 for disinhibition (half maximal concentration)", "value": 1.2, "unit": "nM"}]}, {"compound": "CGRP 27-37: subpeptide 27-37 of calcitonin gene related peptide (FVPTNVGSKAF; ends and bridges not checked; UniProt P06881 109-119, looked up, fragment)", "values": [{"measurement": "Insulin production", "setting": "[4]; substance 10 nmol/L", "value": 36, "unit": "μU/islet/hr"}, {"measurement": "Relative insulin secretion inhibition (percentage by which insulin production is reduced from control)", "setting": "[4]; substance 10 nmol/L", "value": 55, "unit": "%"}, {"measurement": "Insulin production", "setting": "[4]; substance 100 nmol/L", "value": 36, "unit": "μU/islet/hr"}, {"measurement": "Relative insulin secretion inhibition (percentage by which insulin production is reduced from control)", "setting": "[4]; substance 100 nmol/L", "value": 55, "unit": "%"}, {"measurement": "Insulin production", "setting": "[4]; substance 1000 nmol/L", "value": 46, "unit": "μU/islet/hr"}, {"measurement": "Relative insulin secretion inhibition (percentage by which insulin production is reduced from control)", "setting": "[4]; substance 1000 nmol/L", "value": 42, "unit": "%"}]}, {"compound": "insulin: Humulin-R, 100U/mL, recombinant human insulin (Eli Lilly)", "values": [{"measurement": "Increase in rate of glycogen synthesis", "setting": "[3]; zero amylin, zero antagonist", "value": 3.7, "unit": "fold"}]}, {"compound": "rat amylin: rat amylin, Bachem, Torrance, Calif. (KCNTATCATQRLANFLVRSSNNLGPVLPPTNVGSNTY; ends and bridges not checked; cysteine pairing not given here; UniProt P12969 38-74, looked up)", "values": [{"measurement": "Duration of hyperglycemia", "setting": "[5]; [6]", "value": "several hours"}, {"measurement": "Hepatic (endogenous) glucose output", "setting": "[5]; [6]", "value": "increase"}, {"measurement": "Hyperglycemia level after bolus", "setting": "[5]; [6]", "value": "around 200 mg/dL"}, {"measurement": "Peripheral glucose disposal", "setting": "[5]; [6]", "value": "increased impediment"}, {"measurement": "Plasma lactate", "setting": "[5]; [6]", "value": "transient increase"}, {"measurement": "Time to hyperglycemia at diabetic levels", "setting": "[5]; [6]", "value": "15 to 30", "unit": "min"}, {"measurement": "Respiratory quotient (RQ)", "setting": "[5]; during somatostatin infusion (no endogenous insulin release)", "value": "no change"}, {"measurement": "Respiratory quotient (RQ)", "setting": "[5]; somatostatin absent, insulin allowed to increase", "value": "increase"}, {"measurement": "Decrease of insulin-stimulated rate of glycogen synthesis", "setting": "[3]; 20 nM amylin", "value": "approximately 83%"}]}]}
